# Numbered stars: 1 amine (or outer) side, 2 acyl side, 3 side chain; on linkers, the order of the positions; unused ones are H or OH. Peptide text beside a SMILES is read from it. * marks the point of attachment. CO = O=C([*:1])[*:2]; NHPh = c1ccc(N*)cc1
# Experiment: In vitro inhibition of RPMI 8866 cell adhesion to human MAdCAM-1 IgG chimera.
# Type: cell-based
row,Compound,IC50
1,CC(C)C[C@H](NC(=O)c1cc2ccccc2o1)C(=O)N[C@@H](CC(=O)O)C(=O)N[C@H](C(=O)NCc1ccc(F)c(F)c1)[C@@H](C)O,5.2 µM
2,COc1ccc(CCNC(=O)[C@@H](NC(=O)[C@H](CC(=O)O)NC(=O)[C@H](CC(C)C)NC(=O)c2cc3ccccc3cn2)[C@@H](C)O)cc1,> 25 µM
3,COc1ccc(CNC(=O)[C@@H](NC(=O)[C@H](CC(=O)O)NC(=O)[C@H](CC(C)C)NC(=O)c2cc3ccccc3cn2)[C@@H](C)O)cc1,3 µM
4,CC(C)C[C@H](NC(=O)c1cc2ccccc2cn1)C(=O)N[C@@H](CC(=O)O)C(=O)N[C@H](C(=O)NCc1ccc(F)cc1)[C@@H](C)O,5.2 µM
5,CC(C)C[C@H](NC(=O)c1coc2ccccc2c1=O)C(=O)N[C@@H](CC(=O)O)C(=O)NC(C(N)=O)C(O)c1ccccc1 (some centres undefined),6.4 µM
6,CC(C)C[C@H](NC(=O)c1cc2ccccc2cn1)C(=O)N[C@@H](CC(=O)O)C(=O)N[C@@H](C(N)=O)[C@@H](C)O,3.9 µM
7,CC(C)C[C@H](NC(=O)c1coc2ccccc2c1=O)C(=O)N[C@@H](CC(=O)O)C(=O)N[C@H](C(N)=O)[C@@H](C)O,1.3 µM
8,CC(C)C[C@H](NC(=O)c1ccc([N+](=O)[O-])cc1)C(=O)N[C@@H](CC(=O)O)C(=O)N[C@H](C(N)=O)[C@@H](C)O,9 µM
9,CC(C)C[C@H](NC(=O)c1cc2ccccc2o1)C(=O)N[C@@H](CC(=O)O)C(=O)N[C@H](C(=O)NCc1ccc2c(c1)OCO2)[C@@H](C)O,4.4 µM
10,COc1ccc(C(=O)N[C@@H](CC(C)C)C(=O)N[C@@H](CC(=O)O)C(=O)N[C@H](C(N)=O)[C@@H](C)O)cc1,> 25 µM
11,CC(C)C[C@H](NC(=O)c1cc2ccccc2cn1)C(=O)N[C@@H](CC(=O)O)C(=O)N[C@H](C(N)=O)[C@@H](C)O,3.1 µM
12,CC(C)C[C@H](NS(=O)(=O)c1ccccc1)C(=O)N[C@@H](CC(=O)O)C(=O)N[C@H](C(N)=O)[C@@H](C)O,> 25 µM
13,CC(C)C[C@H](NC(=O)c1cc2ccccc2o1)C(=O)N[C@@H](CC(=O)O)C(=O)N[C@H](C(N)=O)[C@@H](C)O,2.3 µM
14,CC(C)C[C@H](NC(=O)c1cc2ccccc2cn1)C(=O)N[C@@H](CC(=O)O)C(=O)N[C@H](C(=O)NCc1ccncc1)[C@@H](C)O,1.1 µM
15,CC(C)C[C@H](NC(=O)/C=C/c1ccccc1)C(=O)N[C@@H](CC(=O)O)C(=O)N[C@H](C(N)=O)[C@@H](C)O,4.9 µM
16,CC(C)C[C@H](NC(=O)c1coc2ccccc2c1=O)C(=O)N[C@@H](CC(=O)O)C(=O)N[C@H](C(N)=O)[C@H](C)O,4.7 µM
17,CC(=O)N[C@@H](CC(C)C)C(=O)N[C@@H](CC(=O)O)C(=O)N[C@H](C(N)=O)[C@@H](C)O (Ac-Leu-Asp-Thr-NH2),250 µM
18,CC(C)C[C@H](NC(=O)c1ccccc1)C(=O)N[C@@H](CC(=O)O)C(=O)N[C@H](C(N)=O)[C@@H](C)O (HELM PEPTIDE1{[O=C(c1ccccc1)[*:2]].L.D.T.[am]}$$$$V2.0),8.2 µM
19,CC(C)C[C@H](NC(=O)Nc1ccccc1)C(=O)N[C@@H](CC(=O)O)C(=O)N[C@H](C(N)=O)[C@@H](C)O ({NHPh-CO}-Leu-Asp-Thr-NH2),> 25 µM

# — ChEMBL document CHEMBL1131364, “Novel modified tripeptide inhibitors of alpha 4 beta 7 mediated lymphoid cell adhesion to MAdCAM-1” (Bioorg Med Chem Lett, 1998)
